Assay results: ChEMBL document CHEMBL3046058, “Insecticidal activity of huperzine A from the New Zealand clubmoss, Lycopodium varium” (2002)
Converted amounts (≈) assume the structure as drawn.

Assays:
Type in all cases: functional
[1] = system: Lucilia cuprina; test: Insecticidal activity against newly hatched larvae of Lucilia cuprina assessed as mortality after 24 hr; details: read-out: LD50 (the source's name)
[2] = system: Eurhopalus australis; test: Insecticidal activity against larvae of Anthrenocerus australis assessed as survival after 14 days; details: 336 h, read-out: LD50 (the source's name)
[3] = system: Eurhopalus australis; test: Insecticidal activity against larvae of Anthrenocerus australis assessed as survival at 125 to 4000 ppm after 14 days
[4] = system: Eurhopalus australis; test: Antifeedant activity against larvae of Anthrenocerus australis assessed as amount of food intake at 63 ppm after 14 days (reference value: 55.5 mg)
[5] = system: Tineola bisselliella; test: Insecticidal activity against larvae of Tineola bisselliella assessed as survival at 430 to 4500 ppm after 14 days
[6] = system: Tineola bisselliella; test: Insecticidal activity against larvae of Tineola bisselliella assessed as survival after 14 days; details: 336 h, read-out: LD50 (the source's name)
[7] = system: Lucilia cuprina; test: Insecticidal activity against newly hatched larvae of Lucilia cuprina assessed as survival at 450 to 5130 ppm after 24 hr

With `C/C=C1\[C@H]2C=C(C)C[C@]1(N)c1ccc(=O)[nH]c1C2` [HUPERZINE A] the LC50 [1] was 2380 µg/mL (≈ 9820 µM), the LC50 [2] was 110 µg/mL (≈ 454 µM) and the Activity [3] was 3%. The Activity [4] was 1.5 mg, the Activity [5] was 3% and the LC50 [6] was 630 µg/mL (≈ 2600 µM). For the same molecule, the Activity [7] was 8%.
